This is an account of results in patent US12048713B2, “Pharmaceutical composition for reducing protein bound uremic toxins” (Frimline Private Limited, priority 2020, dated 2024).

The subject of the test is 5/6 Nephrectomy induced chronic kidney disease (CKD) in rat. The experiment in a line: 5/6 Nephrectomy induced chronic kidney disease in rat: IS and PCS blood level, mortality. The format is in vivo, Wistar rats (Rattus norvegicus). The settings on record: for IS Mean: Indoxyl Sulphate blood level, disease control 7.33; for IS Mean / PCS Mean: p.o. daily for 13 weeks; for PCS Mean: P-Cresyl Sulphate blood level, disease control 1.13; for IS % Decreased: decrease in Indoxyl Sulphate blood level compared to disease control; for IS % Decreased / PCS % Decreased: p.o. daily 13 weeks; for PCS % Decreased: decrease in P-Cresyl Sulphate blood level compared to disease control. How it is done:
The effect of the compositions of the present invention and other test and reference compositions was studied in animals. For this study, screening effect of synergistic combination or composition/formulation comprising Inulin and other active ingredients against 5/6 Nephrectomy induced chronic kidney disease (CKD) in rat was performed. The following trials were carried out:
Eighty Four (84) female rats (Wistar rats (Rattus norvegicus)) divided into 14 groups (6 per group) were maintained in animal house in a light/dark atmosphere based on a 12 hour cycle having temperature and relative humidity in the range of 19 to 25±2° C. and 30-70%, respectively. To maintain the appropriate conditions, temperature and relative humidity were recorded three times daily. All animals were acclimatized for a minimum period of five days. Animals were maintained in the test setup for minimum 30 minutes once during the acclimatization period to reduce the stress. Animals were weighed on the day of receipt and observed daily for abnormalities if any. Detailed records of acclimatization were also maintained. Rats were housed 3 per cage in clean, sterilized Polypropylene cages. During complete experiment, animals were supplied with the standard certified rat pellet feed and drinking water treated by the reverse osmosis ad libitum.
In order to evaluate the activity against chronic kidney disease, eighty four (84) rats were screened and divided into Fourteen (14) groups. For a comparative analysis, groups were divided as normal control (Group 1 (G1)), sham Control (Group 2 (G2)), disease control (Group 3 (G3)), treatment groups with individual components (Group 4 (G4), Group 5 (G5) and Group 6 (G6) as Inulin, Betaine and Resistant Starch respectively), test composition (Group 7 (G7) to Group 11 (G11) (Combination of Inulin with Betaine at different dose level), test composition Group 12 (G12) to Group 13 (G13) (Combination of Inulin, Betaine and Resistant Starch) and reference standard (Group 14 (G14)) (Activated Charcoal). Table 1 provides the details of the various groups and treatments conducted in the trial wherein G4 to G14 are treatment groups. Experiment was carried out for 3 months in two stages.
The animals under consideration were examined for a study period of 13 weeks and two-stage surgical procedure for kidney ligation and removal were performed.
Stage one: A ventral midline incision into the abdomen was made to expose the animal's left kidney and the organ was freed from the surrounding tissue. A piece of suture was placed and ligated around each pole of the kidney at its one-third position. The one-third kidney on each pole was excised beyond the ligatures and the abdominal incision was closed.
Stage two: This procedure was performed 7 days after stage one. The animals were placed in ventral recumbency and an incision was made parallel to the midline. The abdominal cavity was entered, and the right kidney was made free from the surrounding tissue. The kidney was gently pulled out from the incision and the adrenal gland was freed and replaced into the abdominal cavity. The renal blood vessels and the ureter were ligated or cauterized. The kidney was then removed by transecting the vessels and ureter just distal to the ligature or cauterized section. The skin incision was closed with wound clips.
Treatment: All treatment groups were treated on daily basis for 13 weeks after stage two of surgery. Blood collection and biochemistry analysis were done after completion of the treatment of all treated groups at the end of 13th week treatment.

With `C[N+](C)(C)CC(=O)O` [Betaine], the “IS Mean” value worked out at 7.01 mg/L, the “PCS Mean” value is reported as 1.09 mg/L, the “IS % Decreased” value is on record as 4.37% and the “PCS % Decreased” value was 3.54%.

Consider Inulin, for which the “IS Mean” value worked out at 5.55 mg/L, the “PCS Mean” value worked out at 0.84 mg/L, the “IS % Decreased” value is 24.29% and the “PCS % Decreased” value is listed as 25.66%.

With Resistant Starch [RS], the “IS Mean” value is on record as 6.5 mg/L, the “PCS Mean” value is 1.01 mg/L, the “IS % Decreased” value is recorded as 11.33% and the “PCS % Decreased” value is 10.62%.
